The results in this text go back to article PMC12057046, “Elucidation of short linear motif-based interactions of the MIT and rhodanese domains of the ubiquitin-specific protease 8” (Biology Direct, 2025).

One test deals with T1, USP8 Rhod domain (Homo sapiens, UniProt P40818).
T1 construct: USP8 Rhod (174–317) (UniProt: P40818); GST (cleaved yes); made in house; host or cells: Escherichia coli BL21-Gold (DE3)
T1 sequence (P40818 174-317): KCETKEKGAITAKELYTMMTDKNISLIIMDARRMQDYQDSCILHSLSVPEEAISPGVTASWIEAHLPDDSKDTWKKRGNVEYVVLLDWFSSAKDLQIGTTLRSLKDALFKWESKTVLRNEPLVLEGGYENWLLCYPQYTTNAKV
Kind of test: Peptide-phage display-based deep mutational scanning (DMS), USP8 Rhod domain. In kind it is binding. To be noted: PSSM, library USP8_DMS, days 2,3; position 7. The procedure:
Four rounds of phage selections were carried out using the second generation human disorderome library or the constructed deep mutational scanning library. At least three individual replicates were used for each bait protein. 10 µg of GST-tagged proteins or GST control (diluted in PBS from the stock of proteins kept in the purification elution buffer) were immobilized in 100 µL PBS on a 96-well MaxiSorp (Nunc) plate overnight at 4 °C. The plates were incubated with blocking buffer (with 0.5% BSA in PBS) for 1 h at 4 °C followed by washing with 0.05% Tween 20 in PBS four times. The naïve phage library (10^11 CFU) was diluted in 1/5th volume PEG/NaCl (20% PEG-8000, 0.4 M NaCl) and 1X PBS, incubated on ice for 10 min and centrifuged at 10,000 [drawing 3] g for 10 min. The pellet was resuspended in the volume of PBS (100 µL/ well). The GST-coated control plate was incubated with 100 µL library per well in PBS for 1 h at 4 °C to remove non-specific binders. The supernatant was transferred to the target wells and incubated for 2 h at 4 °C. The wells were washed five times with 0.05% Tween 20 in PBS and the bound phages were eluted with 100 µL per well log-phase E. coli OmniMAX by incubating at 37° C while shaking. After 30 min, M13KO7 helper phages were added and incubated for an additional 45 min. The bacterial cultures were transferred to 1 mL 2YT supplemented with 100 µg/mL carbenicillin, 30 µg/mL kanamycin and 0.3 mM IPTG and grew overnight at 37 °C while shaking. The following day the cultures were centrifuged for 10 min at 2,000 [drawing 4] g, 4 °C. 1/10th volume of 10 [drawing 5] PBS was added to adjust the pH and heated at 65 °C for 10 min. The phage pools from each round were used as in-phages for the next round of selections.
The samples were prepared for NGS as previously described. […] The PCR products were normalized with 25 µL Mag-bind Total Pure NGS beads (Omega Biotek) and 10 µL of each eluted sample (Qiagen Elution Buffer) was pooled and cleaned-up with a PCR purification kit (Qiagen). The PCR product was confirmed by 2% agarose electrophoresis and the band was extracted with QIAquick Gel extraction Kit (Qiagen) and eluted with 30 µL TE buffer. The dsDNA was quantified using QuantiT PicoGreen dsDNA Assay Kit (Thermo Fisher) and sent for NGS (Illumina MiSeq v3, 1 × 150 bp read setup, 20% PhiX, NGI SciLifeLab facility, Sweden). The NGS data were demultiplexed, adapter regions were trimmed and sequences with an average quality of at least 20 were translated to peptide sequences. The NGS data were analysed using custom Python scripts. The total read NGS counts for each selection experiment of each peptide sequence were compiled and annotated in PepTools (https://slim.icr.ac.uk/tools/peptools/). Since ProP-PD is in essence a competition assay, the possibility of the input phage library influencing the selection outcome was explored. […] Pearson correlation coefficient and p-value were calculated using Python’s SciPy library.
On to “KIAA1614_Q5VZ46_569_584 G7Y (MERVLGYLSSPLRLLP; peptide 569-584; UniProt Q5VZ46 569-584, looked up, variant G7Y)”, for which the “enrichment_relative_to_wt at position 7 (wt G)” value (shortened to “enrichment_relative_to_wt”) was -2 and the “proportion of amino acid at position 7 (wt G)” value (“proportion of amino acid” for short) was 0.00809.

For the substance “KIAA1614_Q5VZ46_569_584 G7F (MERVLGFLSSPLRLLP; UniProt Q5VZ46 569-584, looked up, variant G7F)”, the “enrichment_relative_to_wt” value was found to be 3 and the “proportion of amino acid” value turned out to be 0.0448.

In the case of “KIAA1614_Q5VZ46_569_584 G7E (MERVLGELSSPLRLLP; UniProt Q5VZ46 569-584, looked up, variant G7E)”, the “enrichment_relative_to_wt” value is given as 1.36 and the “proportion of amino acid” value is reported as 0.02.

Staying with this test, now noted: ProP-PD DMS, bait USP8_Rhodanese__P40818_174_317; pair wild-type GMERVLGGLSSPLRLL (wt_00013) vs mutant; positive where wild-type fraction is higher, negative where mutant fraction is higher.
GMERVLGGLSSPLALL registered a hit_pair_ratio of -3.54.

GMERVLGGLSSPLRLP had a hit_pair_ratio of 160.99.

Consider GMERVLGGLASPLRLL, for which the hit_pair_ratio came to 321.97.

GMERVLGGLSSPLRLM showed a hit_pair_ratio of -1.86.

Substance GMERVLGGLSSPLRIL yielded a hit_pair_ratio of 321.97.

Consider GMERVLGGLSSPFRLL, for which the hit_pair_ratio is on record as 65.83.

In turn, GMERVLGGLSSPLLLL showed a hit_pair_ratio of 2.57.

In turn, GMERVLGGLHSPLRLL had a hit_pair_ratio of 1.07.

In the case of GMERVLGGLSSPLHLL, the hit_pair_ratio is on record as 5.88.

Turning to GMERVLGGLSSPLILL, the hit_pair_ratio is -3.18.

Substance GMERVLGGLSYPLRLL gave a hit_pair_ratio of 321.97.

The substance GMERVLGGLSSPLRLT had a hit_pair_ratio of 131.67.

The substance GMERVLGGLSSRLRLL registered a hit_pair_ratio of 160.99.

Turning to GMERVLGGLSSPLRAL, the hit_pair_ratio was 160.99.

With GMERVLGGLSTPLRLL, the hit_pair_ratio worked out at 2.98.

Consider GMERVLGGLSSPLRLI, for which the hit_pair_ratio came out at 4.34.

In the case of GMERVLGGLSAPLRLL, the hit_pair_ratio was determined as 160.99.

Substance GMERVLGGLSSPWRLL registered a hit_pair_ratio of 2.81.

GMERVLGGLSSPLRLN gave a hit_pair_ratio of 321.97.

For GMERVLGGLSSPHRLL, the hit_pair_ratio is listed as 80.49.

GMERVLGGLSSPLNLL: the hit_pair_ratio came to 38.62.

Regarding GMERVLGGLSSSLRLL, the hit_pair_ratio was 8.62.

The test is the same for the next values; noted with them: ProP-PD pairs, bait USP8_Rhodanese__P40818_174_317; wild-type/mutant pair, wild type KIAA1614 569-584 GMERVLGGLSSPLRLL (wt_00013).
In the case of GMERVLGGNSSPLRLL, the hit_pair_ratio turned out to be 1.15.

Regarding GMERRLGGLSSPLRLL, the hit_pair_ratio turned out to be 16.75.

As to GMERVLGGVSSPLRLL, the hit_pair_ratio is -2.88.

GMERVFGGLSSPLRLL yielded a hit_pair_ratio of 321.97.

As to GMENVLGGLSSPLRLL, the hit_pair_ratio was 107.32.

Consider GMERWLGGLSSPLRLL, for which the hit_pair_ratio was -5.43.

Consider GMERVLYGLSSPLRLL, for which the hit_pair_ratio turned out to be 2.20.

In turn, GMERVLFGLSSPLRLL registered a hit_pair_ratio of -3.55.

The substance GMERILGGLSSPLRLL came in with a hit_pair_ratio of 20.85.

GLERVLGGLSSPLRLL displayed a hit_pair_ratio of 1.84.

As to GMHRVLGGLSSPLRLL, the hit_pair_ratio was found to be 16.95.

Take GMERVLTGLSSPLRLL: the hit_pair_ratio is given as -43.42.

For GMERVLGNLSSPLRLL, the hit_pair_ratio came to 160.99.

GMERGLGGLSSPLRLL registered a hit_pair_ratio of -1.02.

Regarding GDERVLGGLSSPLRLL, the hit_pair_ratio is on record as -4.95.

For the substance GMERVQGGLSSPLRLL, the hit_pair_ratio was 107.32.

In the case of GMERPLGGLSSPLRLL, the hit_pair_ratio came to 1.07.

On to GMYRVLGGLSSPLRLL, for which the hit_pair_ratio came out at 17.24.

GMERVLWGLSSPLRLL showed a hit_pair_ratio of 321.97.

GWERVLGGLSSPLRLL displayed a hit_pair_ratio of 3.37.

With GMERVVGGLSSPLRLL, the hit_pair_ratio was 321.97.

For the substance GMDRVLGGLSSPLRLL, the hit_pair_ratio was -1.75.

On to GMERVGGGLSSPLRLL, for which the hit_pair_ratio is listed as 29.56.

GMERVLGVLSSPLRLL: the hit_pair_ratio was 14.78.

Substance GAERVLGGLSSPLRLL came in with a hit_pair_ratio of -2.65.

Substance GMERVLGGQSSPLRLL gave a hit_pair_ratio of -8.29.

Turning to IMERVLGGLSSPLRLL, the hit_pair_ratio turned out to be 24.34.

Regarding EMERVLGGLSSPLRLL, the hit_pair_ratio is recorded as 2.87.

The substance GMELVLGGLSSPLRLL had a hit_pair_ratio of 160.99.

The test is the same for the next values; noted with them: bait USP8_Rhodanese__P40818_174_317; wild-type/mutant pair ratio of averaged fractions; negative values where mutant fraction is higher.
In the case of GLALWEAKMKNLAERA, the hit_pair_ratio was 1.69.

As for GLALWEAKMGQLAERA, the hit_pair_ratio is on record as -1.24.

For the substance GLALWEAKMIQLAERA, the hit_pair_ratio is on record as 19.96.

As to GLALWEAKMMQLAERA, the hit_pair_ratio was 417.62.

Consider GLALWEAKMKQLAENA, for which the hit_pair_ratio is listed as 55.62.

For GLALWEAKMKQLASRA, the hit_pair_ratio is given as 65.49.

Regarding GLALWEAKMKQRAERA, the hit_pair_ratio turned out to be 417.62.

Take GLALWEAKMKQLAERN: the hit_pair_ratio was -1.05.

With GLALWEAKMKQLAQRA, the hit_pair_ratio amounted to 119.01.

Regarding GLALWEAKMTQLAERA, the hit_pair_ratio was found to be 29.92.

For AMERVLGGLSSPLRLL, the hit_pair_ratio is listed as -9.71.

GLALWEAKMKQLAARA: the hit_pair_ratio is given as 114.71.

Consider GLALWEAKMKQLAETA, for which the hit_pair_ratio is on record as -1.95.

In the case of GLALWEAKMKSLAERA, the hit_pair_ratio is 1.39.

GLALWEAKMKQLAYRA: the hit_pair_ratio was 208.81.

GLALWEAKMKQLAGRA: the hit_pair_ratio turned out to be 14.06.

As for GLALWEAKMKQLAERL, the hit_pair_ratio is 72.57.

GLALWEAKMPQLAERA: the hit_pair_ratio was determined as 553.50.

On to GLALWEAKMKILAERA, for which the hit_pair_ratio is reported as 553.50.

Take GLALWEAKMKQLAELA: the hit_pair_ratio came out at 11.23.

For the substance GLALWEAKMKQLAEHA, the hit_pair_ratio was 25.68.

As for GLALWEAKMKQLAEMA, the hit_pair_ratio is recorded as 12.23.

As to GLALWEAKMYQLAERA, the hit_pair_ratio worked out at 31.05.

Staying with this test, now noted: wild type/mutant pair; bait USP8_Rhodanese__P40818_174_317; vs hit_library_peptide_wt GLALWEAKMKQLAERA; negative where mutant fraction exceeds wild type; ProP-PD pairs (sheet S7.B).
GLAAWEAKMKQLAERA: the hit_pair_ratio was 52.20.

As to GLALWEAKMNQLAERA, the hit_pair_ratio is -19.47.

In turn, GLALWEAKFKQLAERA yielded a hit_pair_ratio of 369.00.

Substance GLALPEAKMKQLAERA showed a hit_pair_ratio of 110.70.

As to GLALWEAEMKQLAERA, the hit_pair_ratio is recorded as 1107.01.

GLALHEAKMKQLAERA: the hit_pair_ratio worked out at 1107.01.

As to GLMLWEAKMKQLAERA, the hit_pair_ratio stood at 20.89.

The substance GLALWVAKMKQLAERA registered a hit_pair_ratio of 417.62.

On to GLALWEEKMKQLAERA, for which the hit_pair_ratio amounted to 553.50.

In turn, GLALWFAKMKQLAERA displayed a hit_pair_ratio of 553.50.

In turn, ELALWEAKMKQLAERA yielded a hit_pair_ratio of 75.56.

GLHLWEAKMKQLAERA displayed a hit_pair_ratio of 553.50.

Substance GLALWEAKRKQLAERA displayed a hit_pair_ratio of 44.28.

GLALWENKMKQLAERA had a hit_pair_ratio of 24.65.

Turning to GLVLWEAKMKQLAERA, the hit_pair_ratio is 27.71.

Turning to GLFLWEAKMKQLAERA, the hit_pair_ratio worked out at 1107.01.

Consider GLALWEVKMKQLAERA, for which the hit_pair_ratio was determined as 92.62.

As for GLANWEAKMKQLAERA, the hit_pair_ratio is 4.24.

Regarding GLALWEAKTKQLAERA, the hit_pair_ratio came to 26.45.
